Assay results from US8426414B2, “Modulators of G protein-coupled receptor 88” (Bristol-Myers Squibb Company, priority 2009, dated 2013).
Counter-ions that a name gives are not always drawn. Like-named read-outs stand apart in the source and are kept apart here.

What was measured:
[1] = target: G protein-coupled receptor 88 (Homo sapiens, UniProt Q9GZN0); test: GPR88 functional assay for the Table 2 EC50 values (GTPγS assay and cAMP HTRF assay described; table does not say which); assay type: cell-based; conditions: read-out: Range (EC50)
G protein-coupled receptor 88, sequence (Q9GZN0 whole entry, species assumed): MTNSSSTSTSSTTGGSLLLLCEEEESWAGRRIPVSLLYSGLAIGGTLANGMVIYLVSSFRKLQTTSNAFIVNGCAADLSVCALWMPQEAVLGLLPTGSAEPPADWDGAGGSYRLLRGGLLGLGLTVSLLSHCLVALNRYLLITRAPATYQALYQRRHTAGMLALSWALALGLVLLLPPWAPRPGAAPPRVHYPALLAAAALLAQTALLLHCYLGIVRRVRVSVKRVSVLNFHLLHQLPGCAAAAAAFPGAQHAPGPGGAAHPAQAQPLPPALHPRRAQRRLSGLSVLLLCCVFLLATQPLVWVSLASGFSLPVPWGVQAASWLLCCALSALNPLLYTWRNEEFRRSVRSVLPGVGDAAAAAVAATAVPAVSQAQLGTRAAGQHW
Description: 96 well GTPγS assay plates were purchased from Perkin Elmer. Wheat Germ Agglutinin PVT SPA beads and […] were purchased from Amersham GDP, GTPγS and all buffer reagents were from Sigma. 384 well white NBS plates were purchased from corning. Pertussis toxin was purchased from Calbiochem. All cell culture reagents were purchased from Invitrogen. Forskolin was purchased from Sigma. The cAMP HTRF kit was purchased from Cisbio International.
The GTPγS assay buffer consisted of 10 mM MgCl2, 180 mM NaCl, 200 uM GDP, 0.167 mg/ml DTT, 1 mM EGTA and 20 mM HEPES pH7.4. This buffer was used for dilution of membranes, beads, and ^35S GTPγS components. To each well of the 96 well assay plate 48 ul assay buffer, 2 ul of 100× compound, 50 ul membrane solution (0.2 ug/ul), 50 ul ^35S GTPγS solution (0.8 nM) and 50 ul of SPA beads (10 mg/ml). Non-specific binding was determined by the addition of cold GTPγS to control wells. The plates were sealed with clear sealing tape and incubated at room temperature for 1 hour. GTPγS activity was detected using a Wallac Micro-Beta Trilux liquid scintillation counter. Non-specific binding was determined using 10 uM cold GTPγS.
The cAMP HTRF assay is modified from the Cisbio International kit procedure 62AM4PEJ. Assay plates were prepared by stamping 0.1 ul of 100× compound stock solutions diluted in DMSO or DMSO alone into 384 well NBS plates. The cAMP HTRF assay was performed using cells in suspension. The cAMP HTRF assay buffer consisted of Hank's Balanced Salt Solution (HBSS), 2 mM CaCl2, 5 mM MgCl2, 20 mM HEPES and 1 mM 3-isobutyl-1-methylxanthine (IBMX) (added fresh at the time of assay). For pertussis toxin treatment pertussis toxin (100 ng/ml) was added to culture medium for 16 hours prior to assay. Confluent cells were disrupted with cell dissociation buffer count cells then centrifuged at 1000×g for 5 minutes. The cell pellet was resuspended in assay buffer alone for basal cAMP measurements or with 0.75 uM forskolin (added immediately prior to addition to wells) for addition to all other wells. Using a Multidrop 384 (Lab systems) 10 ul of cell suspension was added to each well containing compound or DMSO. The plates were incubated at room temperature for 30 minutes covered. During this time the cAMP standard curve was prepared as per manufacturer's instruction. At the end of the incubation 10 ul of anti-cAMP cryptate and 10 ul cAMP-XL, diluted in manufacturer's lysis buffer, were added to each well. The plated were incubated at room temperature for 60 minutes covered then read on an Envision plate reader (Perkin Elmer) and the 665 nm/620 nm fluorescence ratio determined Fluorescence ratio values were converted to molar cAMP concentrations from the standard curve using the GraphPad Prism program.

Compound | EC50 ([1]; class symbol X) | further results
CCCc1ccc(-c2ccc(N(C[C@@H](N)[C@@H](C)CC)C(=O)C3CC3c3cnccn3)cc2)cc1 (stereo partly drawn) [Example 11, (Trans)-2-pyrazin-2-yl-cyclopropanecarboxylic acid ((2S,3S)-2-amino-3-methyl-pentyl)-(4′-propyl-biphenyl-4-yl)-amide] | 3 to 20 nM | 
CC[C@H](C)[C@H](N)CN(C(=O)[C@H]1C[C@@H]1c1ccc(F)cn1)c1ccc(-c2ccc(COC)cc2)cc1 (stereo in doubt) [Example 4, (Trans)-2-(5-fluoro-pyridin-2-yl)-cyclopropanecarboxylic acid ((2S,3S)-2-amino-3-methyl-pentyl)-(4′-methoxymethyl-biphenyl-4-yl)-amide] | 3 to 20 nM | 
CC[C@H](C)[C@H](N)CN(C(=O)[C@@H]1C[C@H]1c1cccc(F)n1)c1ccc(-c2ccc(OC(C)C)cc2)cc1 [Example 15, Trans-2-(6-fluoro-pyridin-2-yl)-cyclopropanecarboxylic acid ((2S,3S)-2-amino-3-methyl-pentyl)-(4′-isopropoxy-biphenyl-4-yl)-amide] |  | EC50 ([1]; value given as number): 8 nM
CCCC#Cc1ccc(N(C[C@@H](N)[C@@H](C)CC)C(=O)C2CC2c2cccc(F)n2)cc1 (stereo in doubt) [Example 19, (1S,2S)-2-(6-Fluoro-pyridin-2-yl)-cyclopropanecarboxylic acid ((2S,3S)-2-amino-3-methyl-pentyl)-(4-pent-1-ynyl-phenyl)-amide 2TFA] | 3 to 20 nM | 
CCCc1ccc(-c2ccc(N(CC3(N)CCOCC3)C(=O)[C@@H]3C[C@H]3c3ccccn3)cc2)cc1 (relative stereo) (as salt: hydrochloride) [Example 9, Trans-2-Pyridin-2-yl-cyclopropanecarboxylic acid (4-amino-tetrahydro-pyran-4-ylmethyl)-(4′-propyl-biphenyl-4-yl)-amide] |  | melting point: 180 to 183 °C
CCCc1ccc(-c2ccc(N(C[C@@H](N)[C@@H](C)CC)C(=O)[C@H]3C[C@@H]3c3ncccc3F)cc2)cc1 [Example 10] | 3 to 20 nM | 
CC[C@H](C)[C@H](N)CN(C(=O)[C@@H]1C[C@H]1c1ccc(F)cn1)c1ccc(OCC2CCC2)cc1 [Example 12, 2-(5-Fluoro-pyridin-2-yl)-cyclopropanecarboxylic acid ((2S,3S)-2-amino-3-methyl-pentyl)-(4-cyclobutylmethoxy-phenyl)-amide] |  | EC50 ([1]; value given as number): 20 nM
COCc1ccc(-c2ccc(N(CC3(N)CCCC3)C(=O)[C@@H]3C[C@H]3c3cccc(F)n3)cc2)cc1 (relative stereo) [Example 8, Trans-2-(6-fluoro-pyridin-2-yl)-cyclopropanecarboxylic acid (1-amino-cyclopentylmethyl)-(4′-methoxymethyl-biphenyl-4-yl)-amide] | 3 to 20 nM | 
CC[C@H](C)[C@H](N)CN(C(=O)[C@@H]1C[C@H]1c1ccc(F)cn1)c1ccc2cc(C3CC3)ccc2c1 [Example 20] | 3 to 20 nM | 
CC(C)Oc1ccc(-c2ccc(N(CC3(N)CCCC3)C(=O)[C@@H]3C[C@H]3c3cccc(F)n3)cc2)cc1 (relative stereo) [Example 7, Trans-2-(6-fluoro-pyridin-2-yl)-cyclopropanecarboxylic acid (1-amino-cyclopentylmethyl)-(4′-isopropoxy-biphenyl-4-yl)-amide] | 3 to 20 nM | 
CC[C@H](C)[C@H](N)CN(C(=O)[C@@H]1C[C@H]1c1ccccn1)c1ccc(-c2ccc(COC)cc2)cc1 [Example 1, (1R,2R)-2-Pyridin-2-yl-cyclopropanecarboxylic acid ((2S,3S)-2-amino-3-methyl-pentyl)-(4′-methoxymethyl-biphenyl-4-yl)-amide] | 3 to 20 nM | 

Second part, led by results:

EC50 ([1]; class symbol X) | Compound | further results
3 to 20 nM | CC[C@H](C)[C@H](N)CN(C(=O)[C@@H]1C[C@H]1c1ccc(F)cn1)c1ccc(OCC2CCC2)cc1 [Example 17, (1R,2R)-2-(5-Fluoro-pyridin-2-yl)-cyclopropanecarboxylic acid ((2S,3S)-2-amino-3-methyl-pentyl)-(4-cyclobutylmethoxy-phenyl)-amide] | 
3 to 20 nM | CCCc1ccc(-c2ccc(N(CC3(N)CCCC3)C(=O)[C@@H]3C[C@H]3c3cccc(F)n3)cc2)cc1 (relative stereo) [Example 6, Trans-2-(6-fluoro-pyridin-2-yl)-cyclopropanecarboxylic acid (1-amino-cyclopentylmethyl)-(4′-propyl-biphenyl-4-yl)-amide] | 
3 to 20 nM | CC[C@H](C)[C@H](N)CN(C(=O)[C@@H]1C[C@H]1c1ccccn1)c1ccc(-c2ccc(OC(C)C)cc2)cc1 [Example 2, (1R,2R)-2-Pyridin-2-yl-cyclopropanecarboxylic acid ((2S,3S)-2-amino-3-methyl-pentyl)-(4′-isopropoxy-biphenyl-4-yl)-amide] | 
3 to 20 nM | CC[C@H](C)[C@H](N)CN(C(=O)[C@@H]1C[C@H]1c1ccccn1)c1ccc(OCC2CCC2)cc1 [Example 13, (1R,2R)-2-Pyridin-2-yl-cyclopropanecarboxylic acid ((2S,3S)-2-amino-3-methyl-pentyl)-(4-cyclobutylmethoxy-phenyl)-amide] | 
3 to 20 nM | CCCc1ccc(-c2ccc(N(C[C@@H](N)[C@@H](C)OC)C(=O)[C@@H]3C[C@H]3c3cnccn3)cc2)cc1 [Example 18, Trans-2-pyrazin-2-yl-cyclopropanecarboxylic acid ((2R,3R)-2-amino-3-methoxy-butyl)-(4′-propyl-biphenyl-4-yl)-amide] | 
3 to 20 nM | CC[C@H](C)[C@H](N)CN(C(=O)[C@@H]1C[C@H]1c1cccc(F)n1)c1ccc(-c2ccc(COC)cc2)cc1 [Example 16, Trans-2-(6-fluoro-pyridin-2-yl)-cyclopropanecarboxylic acid ((2S,3S)-2-amino-3-methyl-pentyl)-(4′-methoxymethyl-biphenyl-4-yl)-amide] | 
3 to 20 nM | CCCc1ccc(-c2ccc(N(CC3(N)CCOCC3)C(=O)[C@@H]3C[C@H]3c3ccccn3)cc2)cc1 (relative stereo) [Example 9, Trans-2-Pyridin-2-yl-cyclopropanecarboxylic acid (4-amino-tetrahydro-pyran-4-ylmethyl)-(4′-propyl-biphenyl-4-yl)-amide] | 
3 to 20 nM | CCCc1ccc(-c2ccc(N(C[C@@H](N)[C@@H](C)CC)C(=O)[C@@H]3C[C@H]3c3cccc(F)n3)cc2)cc1 [Example 14, Trans-2-(6-fluoro-pyridin-2-yl)-cyclopropanecarboxylic acid ((2S,3S)-2-amino-3-methyl-pentyl)-(4′-propyl-biphenyl-4-yl)-amide] | 
3 to 20 nM | CC#Cc1ccc(-c2ccc(N(C[C@@H](N)[C@@H](C)CC)C(=O)[C@@H]3C[C@H]3c3ccccn3)cc2)cc1 [Example 5, (1R,2R)-2-pyridin-2-yl-cyclopropanecarboxylic acid ((2S,3S)-2-amino-3-methyl-pentyl)-(4′-prop-1-ynyl-biphenyl-4-yl)-amide] | 
